Where two headings read alike, the source gives them in different places. Where a SMILES comes first, the peptide text is derived from it.
Assays:
[1] = test system: ZIKV; experiment: ZIKV neutralisation by mutant, enantiomer and variant peptides (strain not stated); format: cell-based, Zika virus
Procedure: To further characterize Yodha peptide, we generated alanine-scanning mutants of the peptide, which removes the side chain, but maintains peptide conformation, allowing for the assessment of the significance of each amino acid within the larger structure (Fig. 4A). Each of 23 mutated peptides was tested for its (a) ability to neutralize ZIKV (Fig. 4B) and (b) toxicity against human RBC, if any (Fig. 4C).
So next, we sought to determine how common this peptide or its analogs are in host defense peptides isolated from elsewhere in the world. […] We then determined the extent to which any of these variant peptides can neutralize ZIKV. […] We also generated a series of mutant Yodha peptides, including one which lacks the C terminal DDQERC, a short 12 peptide fragment that lacks the EEERGA from variant #12, and a S1P peptide that replace S1-P in the full-length Yodha (Fig. 5D) and tested their activity against ZIKV (Fig. 5D).
(§1) Peptides were incubated with ZIKV (100 FFU/well) for 2 h at 37 °C. This incubated mixture was used to infect Vero cells for 1.5 h at 37 °C. Cells and inoculum were overlaid with 2% methylcellulose solution (OptiMEM; Gibco) and incubated for 72 h at 37 °C. Cells were washed with PBS and fixed with a 1:1 methanol/acetone mixture for 30 min. Cells were blocked with 5% milk/PSB at room temperature for 20 min and incubated with primary antibody (anti-flavivirus mouse 4G2[10] antibody) for 2 h at 37 °C. Then, cells were incubated with secondary antibody (HRP-conjugated goat anti-mouse IgG, Cell Signaling) for 1 h at 37 °C. Cells were developed with TrueBlue Peroxidase Substrate (KPL). Plates were read on a CTL-ImmunoSpot S6 Micro analyzer.

[2] = test system: ZIKV; experiment: Transmission electron microscopy of peptide-treated ZIKV; set-up: species or system Zika virus; settings: 200 µM peptide, 10 min, negative staining TEM
Procedure: To test this, we treated ZIKV with Yodha peptide or control peptide for 10 min and analyzed virus particles by electron microscopy.
(A) TEM micrographs of ZIKV treated with OVA (control) or Yodha peptide are shown. ZIKV were incubated with the peptides at 200 µM for just 10 min, fixed with paraformaldehyde and then processed for electron microscopy. Yodha treatment led to loss of morphology and aggregation of virus particles. (B) Enlarged images of ZIKV treated with control or Yodha peptide from (A) are shown. The data is representative of three experiments performed.
ZIKV samples were fixed with 4% buffered paraformaldehyde before negative staining. 5 µl of Zika sample was then deposited onto a 400-mesh carbon-coated copper grid that had been treated by glow-discharged for 20 s and allowed 5 min for the sample to settle in a covered glass dish. The grids with samples were then quickly washed by touching the sample side on two drops double distilled water, wick with filter paper, and then stained with 1% phosphotungstic acid (PTA) for 15 s before removing PTA with filter paper. Zika virus was imaged on a JEOL JEM-1400 transmission electron microscope (JEOL Ltd., Tokyo, Japan) equipped with a Gatan US1000 CCD camera (Gatan, Pleasanton, CA).

[3] = test system: ZIKV; experiment: ZIKV entry into Vero cells, viral RNA by qRT-PCR; format: cell-based, Zika virus; settings: ZIKV treated with 200 µM peptide for 30 min, MOI 0.5, 30 min infection, qRT-PCR normalised to GAPDH
Procedure: Next, we determined whether the observed Yodha peptide-induced decrease in viral titers was due to blocked viral entry. We reasoned that if the peptide directly kills or disrupts the envelope structure of ZIKV, this would prevent virus entry. To test this, we designed an experiment to measure virus entry, by allowing ZIKV to bind cells at 4 °C for 1 h followed by shifting the cells to 37 °C to permit virus entry (Fig. 2A). It has been shown that DENV2 entry occurs within 25 min by early endosome trafficking. Briefly, we exposed ZIKV to Yodha peptide and then allowed the virus to infect Vero cells for 30 min. We then measured viral RNA within the Vero cells by quantitative Real Time-PCR (qRT-PCR) (Fig. 2B). […] Next, we visualized ZIKV entry or lack thereof by immunofluorescence using antibodies against pan flavivirus E protein. […] We collected culture supernatants at 3, 24, 48, and 72 h after ZIKV infection to quantitate ZIKV by FFU assay (Fig. 2E). ZIKV was not detected at 3 h post-infection in both OVA- or Yodha-treated cells. […]
Figure 2 Yodha peptide inhibits ZIKV entry into cells. […] (B) ZIKV was treated with 200 µM of Yodha or control OVA peptide for 30 min and then used to infect Vero cells at a MOI of 0.5 and expression of ZIKV RNA was determined by quantitative RT-PCR (qRT-PCR). […] Error bars indicate the SEM of four technical replicates statistical significance was assessed by a 2-way ANOVA. […]

[4] = test system: DENV2; experiment: Focus forming assay, dengue virus; format: cell-based; settings: 50 µM peptide, FFA
Procedure: (§2) Dengue virus strains 1, 2, 3 and 4 were treated with wither Yodha or control OVA peptide at (A) 50 µM (B) 160 µM concentration and the % of viral focus forming units were determined. (C) IC50 measurement of Yodha in DENVs infection by FFA. […] OVA peptide was used a negative control.
as §1

[5] = test system: DENV4; experiment: Focus forming assay, dengue virus; format: cell-based; settings: 50 µM peptide, FFA
Procedure: as §2, §1

[6] = test system: DENV1; experiment: Focus forming assay, dengue virus; format: cell-based; settings: 50 µM peptide, FFA
Procedure: as §2, §1

[7] = test system: DENV3; settings: FFA
Procedure: as §2, §1

CC[C@H](C)[C@H](NC(=O)[C@@H](NC(=O)CNC(=O)[C@H](CC(C)C)NC(=O)[C@H](Cc1ccccc1)NC(=O)[C@H](Cc1ccccc1)NC(=O)[C@H](CC(C)C)NC(=O)[C@H](CC(C)C)NC(=O)[C@H](CC(C)C)NC(=O)[C@H](CCSC)NC(=O)[C@@H](N)CO)[C@@H](C)O)C(=O)N[C@@H](CO)C(=O)N[C@@H](CC(C)C)C(=O)N[C@@H](CO)C(=O)N[C@@H](CC(C)C)C(=O)N[C@@H](CS)C(=O)N[C@@H](CCC(N)=O)C(=O)N[C@@H](CC(=O)O)C(=O)N[C@@H](CC(=O)O)C(=O)N[C@@H](CCC(N)=O)C(=O)N[C@@H](CCC(=O)O)C(=O)N[C@@H](CCCNC(=N)N)C(=O)N[C@@H](CS)C(=O)O [Yodha] (H-SMLLLFFLGTISLSLCQDDQERC-OH; N-terminus and C-terminus assumed)
anti-viral activity against ZIKV, D- versus L-enantiomer [1]: comparable anti-viral activity
virus particle integrity by electron microscopy [2]: disruption of viral particles
ZIKV RNA expressed compared to the OVA and virus-only controls [3]: 20%
inhibition of DENV2 [4]: efficiently inhibited
inhibition of DENV4 [5]: efficiently inhibited
inhibition of DENV1 [6]: efficiently inhibited
inhibition of DENV3 ([7]; 50 µM peptide): not DENV3
inhibition of DENV3 ([7]; 160 µM peptide): very efficient
